Values of other authors in US20060068010A1, “Method for improving the bioavailability of orally delivered therapeutics” (priority 2004, published 2006).
Counter-ions that a name gives are not always drawn. Like-named read-outs stand apart in the source and are kept apart here.

Experiments:
[1] = humans
[2] = normalized to glycine = 0, most hydrophobic = 100

Hydrophobicity Index ([2]; At pH 2)	Hydrophobicity Index ([2]; At pH 7)	SMILES	other results
		CC(C)NCC(O)COc1ccc(CC(N)=O)cc1 (stereo not drawn) [Atenolol, benzeneacetamide, 4-[2′-hydroxy-3′-[(1-methylethyl)amino]propoxy]-]	fraction of an oral dose absorbed from the gastrointestinal tract [1]: about 50%
		O=C(c1ccc(OCCN2CCCCC2)cc1)c1c(-c2ccc(O)cc2)sc2cc(O)ccc12 [raloxifene hydrochloride, 6-hydroxy-2-(4-hydroxyphenyl)-3-[4-(2-piperidinoethoxy)benzoyl]benzo[p]-thiophene]	solubility (hydrochloride-salt form): approximately 0.3 mg/mL; solubility classification (hydrochloride-salt form): very slightly soluble
92	100	N[C@@H](Cc1ccccc1)C(=O)O [Phe, phenylalanine]	
		Cc1nccn1CC1CCc2c(c3ccccc3n2C)C1=O (racemic) [ondansetron, (+/−) 1,2,3,9-tetrahydro-9-methyl-3-[2-methyl-1H-imidazol-1-yl]-4H-carbazol-4-one, monohydrochloride, dehydrate]	solubility classification (base form, at pH greater than 5.0): low solubility
−41	−28	NC(=O)C[C@H](N)C(=O)O [Asn, asparagine]	
100	99	CC[C@H](C)[C@H](N)C(=O)O [Ile, isoleucine]	
52	49	N[C@@H](CS)C(=O)O [Cys, cysteine]	
−42	8	N[C@@H](Cc1c[nH]cn1)C(=O)O [His, histidine]	
47	41	C[C@H](N)C(=O)O [Ala, Alanine]	
49	63	N[C@@H](Cc1ccc(O)cc1)C(=O)O [Tyr, tyrosine]	
74	74	CSCC[C@H](N)C(=O)O [Met, methionine]	
		CN(CCOc1ccc(CC2SC(=O)NC2=O)cc1)c1ccccn1.O=C(O)/C=C\C(=O)O (racemic) [Rosiglitazone maleate, (±)-5-[[4-[2-(methyl-2-pyridinylamino)ethoxy]phenyl]methyl]-2,4-thiazolidinedione, (Z)-2-butenedioate (1:1)]	solubility dependence on pH (physiological pH range): decreases with increased pH
79	76	CC(C)[C@H](N)C(=O)O [Val, valine]	

SMILES	Hydrophobicity Index ([2]; At pH 2)	Hydrophobicity Index ([2]; At pH 7)	other results
N[C@@H](Cc1c[nH]c2ccccc12)C(=O)O [Trp, tryptophan]	84	97	
NCCCC[C@H](N)C(=O)O [Lys, lysine]	−37	−23	
